Here are results for 14 compounds from patent US12071404B2, “Aza (indole)-, benzothiophene-, and benzofuran-3-sulfonamides” (UCB Pharma GmbH, priority 2016, dated 2024).

The target of data set [1] is T1, GPR17 (Homo sapiens, UniProt Q13304). Particulars: activating ligands for GPR17; cited from earlier work.
Target sequence in this assay (Q13304 whole entry, species assumed): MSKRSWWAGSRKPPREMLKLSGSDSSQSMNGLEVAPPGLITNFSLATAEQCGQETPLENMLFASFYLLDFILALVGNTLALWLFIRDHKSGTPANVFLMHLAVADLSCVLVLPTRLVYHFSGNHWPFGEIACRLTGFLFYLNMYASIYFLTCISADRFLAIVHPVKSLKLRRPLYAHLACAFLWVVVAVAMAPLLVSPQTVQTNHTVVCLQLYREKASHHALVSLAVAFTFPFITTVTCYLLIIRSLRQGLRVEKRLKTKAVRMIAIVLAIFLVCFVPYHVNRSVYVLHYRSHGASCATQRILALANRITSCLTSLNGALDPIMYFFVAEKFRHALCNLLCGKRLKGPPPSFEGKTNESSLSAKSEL
Data set [2] can be described thus: Determination of plasma and brain exposure (brain/plasma ratio, brain Kp). It counts as in vivo. To be noted: male Sprague Dawley rats, 3 mg/kg intraperitoneal, approximately 45 minutes after administration, FIG. 3. As for the experimental part: Male Sprague Dawley rats (n=2 per time point) were used to determine the brain penetration of the compounds at 15, 45 and 120 min after 3 mg/kg of intraperitoneal administration.
At each time point, following anesthesia (inhalation of isoflurane) and blood collection (1 mL cardiac puncture into tubes containing K2EDTA) rats were exsanguinated and the brain perfused via the left ventricle (50 mL of heparinized NaCl 0.9% (0.15 UI/mL) flow 50 mL/min).
Brain was collected and weighed. Plasma was obtained from blood samples by centrifugation (3000 g for 15 min at 4° C.). Brain and plasma samples were frozen until time of analysis.
At the time of analysis, brain samples were homogenized in plasma (1:4 v:v) and together with plasma samples, following protein precipitation, were analyzed by HPLC/MS-MS analysis.

Data set [3] addresses T1, GPR17. The experiment in a line: Calcium mobilization functional assay (GPR17 Ca2+ assay). Format: cell-based. More on the design: host or cells: Flp-In T-REx CHO. To be noted: CHO hGPR17 cells, inhibition of 50 nM MDL29,951, Calcium 5 dye, FLIPR; read-out: Ca2+ assay pIC50 (converted). In outline: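 Flp-In T-REx CHO cells stably expressing human GPR17, doxycycline-induced (1 μg/mL, 16-20 h), loaded 60 min with Calcium 5 dye. Inhibition by varying test-compound concentrations of the 50 nM MDL29,951 agonist response was read by fluorescence over time at room temperature. pIC50 came from 4-parameter logistic fitting.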
(Calcium flux is commonly read through the fluorescence of an indicator in the cells.)
Target sequence in this assay (Q13304 whole entry): as the sequence (Q13304 whole entry, species assumed) above

The target in data set [4] is T1, GPR17. The experiment in a line: cAMP accumulation functional assay (HTRF, Schild analysis). Format: cell-based. On the set-up: host or cells: Flp-In T-REx CHO. To be noted: CHO hGPR17 cells, Schild analysis vs MDL29,951, 5 μM forskolin, read-out: cAMP assay pA2 (converted). In outline: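 CHO Flp-In T-REx cells with doxycycline-induced human GPR17 were preincubated 30 min at room temperature in HBSS-HEPES pH 7.4 with antagonist. cAMP was then measured by HTRF after 60 min. MDL29,951 pEC50 shifts gave dose ratios, and Schild analysis gave pA2.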
In general terms: Changes in cAMP serve as a functional read-out for many G protein-coupled receptors.
Target sequence in this assay (Q13304 whole entry): as the sequence (Q13304 whole entry, species assumed) above

Data set [5] deals with primary oligodendrocyte progenitor cells (OPCs). The experiment in a line: MBP fiber plates oligodendrocyte maturation/myelination assay. Format: cell-based, rat. Particulars: OPCs on aligned fiber plates, 1 μM test compound, 6 days, FIG. 2. As for the experimental part: Primary oligodendrocyte progenitor cells (OPCs) were isolated from the forebrains of Wistar rat pups at postnatal day 0 to 2. Cerebra were mechanically dissociated with a syringe and two different hollow needles (first 1.2×40 and then 0.60×30). Clump-free cell suspension was filtered through a 70-μm cell strainer and plated into poly-D-lysine-coated 75-cm^2 culture flasks in DMEM supplemented with 10% (v/v) heat-inactivated fetal calf serum, penicillin (100 units/mL), and streptomycin (0.1 mg/mL) with medium exchanged every second day. After 8 to 11 days at 37° C. in a humidified atmosphere of 5% CO2, mixed cultures were shaken at 240 rpm for 14-24 h to detach OPCs from astrocytes and microglia. To further enrich for OPCs, the suspension was plated onto uncoated Petri dishes for 45 min. Then, OPCs were seeded into poly-L-ornithine-coated plates and maintained at 37° C. in a humidified atmosphere of 5% CO2 in proliferating Neurobasal medium supplemented with 2% (v/v) B27, 2 mM GlutaMAX, 100 units/mL penicillin, 0.1 mg/mL streptomycin, 10 ng/mL PDGF-AA, and 10 ng/mL basic FGF changing the medium every second day.
The effects of negative modulators of GPR17 on primary oligodendrocytes maturation/myelination can be assessed in vitro by immunoassays using antibodies directed against Myelin Basic Protein (MBP), as marker for mature oligodendrocytes. […]

Data set [6] deals with cuprizone-induced demyelination. The experiment in a line: Acute cuprizone mice model (PLP immunohistochemistry in corpus callosum). It counts as in vivo, C57BI/6 J mice. Particulars: oral, daily, 6 mg/kg and 20 mg/kg, vs vehicle p<0.01, FIG. 5.
The conditions of data set [7]: exposure to air and light; cited from earlier work.
For data set [8] the following is noted: cited from earlier work.
For data set [9] the following is noted: in vivo; cited from earlier work.

Molecules are shown by their SMILES.

For the compound `NCC(=O)CCC(=O)O` [Compound 5-ALA, 5 amino levulinic acid], the “amounts needed in the GPR17 assays (reported affinity quite low)” value in data set [1] is listed as “three digit micromolar range”.
As for `O=S(=O)(Nc1ccc(F)cc1F)c1c[nH]c2cc(Cl)ccc12` [Compound I-1, 6-chloro-N-(2,4-difluorophenyl)-1H-indole-3-sulfonamide], the “brain concentrations versus plasma exposure” value in [2] is “displayed brain concentrations paralleling plasma exposure”. Besides, the IC50 in data set [3] is > 31.6 nM. In addition, in data set [4], the Kb was > 31.6 nM.
With `N#Cc1ccc(NS(=O)(=O)c2c[nH]c3cc(Cl)ccc23)c(F)c1` [Compound I-116, 6-chloro-N-(4-cyano-2-fluorophenyl)-1H-indole-3-sulfonamide], the “myelin sheath length (myelinated fibers by fiber length)” value in data set [5] is listed as “induced longer myelin sheaths”. In addition, in data set [3], the IC50 was < 3.16 nM. Also, the Kb in [4] was < 3.16 nM.
For the compound `O=S(=O)(Nc1cc(F)c(Br)cc1F)c1c[nH]c2nc(Cl)ccc12` [Compound I-228, N-(4-bromo-2,5-difluorophenyl)-6-chloro-1H-pyrrolo[2,3-b]pyridine-3-sulfonamide], in data set [6], the “reappearance of myelin-associated proteins (PLP levels in corpus callosum)” value was “accelerates the reappearance of the myelin-associated proteins”.
Regarding `N#CCOc1cc(F)c(NS(=O)(=O)c2c[nH]c3c2ccc2cccnc23)cc1F` [Compound I-360, N-[4-(cyanomethoxy)-2,5-difluorophenyl]-1H-pyrrolo[3,2-h]quinoline-3-sulfonamide], the IC50 in [3] is < 3.16 nM. The Kb in data set [4] is < 3.16 nM.
On to `N#CCc1cc(F)c(NS(=O)(=O)c2c[nH]c3c2ccc2cccnc23)cc1F` [Compound I-361, N-[4-(cyanomethyl)-2,5-difluorophenyl]-1H-pyrrolo[3,2-h]quinoline-3-sulfonamide], for which, in data set [3], the IC50 was < 3.16 nM. Further, in data set [4], the Kb is < 3.16 nM.
As for `N#CCCc1cc(F)c(NS(=O)(=O)c2c[nH]c3c2ccc2cccnc23)cc1F` [Compound I-362, N-[4-(2-cyanoethyl)-2,5-difluorophenyl]-1H-pyrrolo[3,2-h]quinoline-3-sulfonamide], in data set [3], the IC50 was 3.16 to 31.6 nM. The Kb in data set [4] was < 3.16 nM.
For `O=S(=O)(Nc1cc(F)c(OC(F)F)cc1F)c1c[nH]c2nc(C(F)F)ccc12` [Compound I-363, N-[4-(difluoromethoxy)-2,5-difluorophenyl]-6-(difluoromethyl)-1H-pyrrolo[2,3-b]pyridine-3-sulfonamide] the same measures were 3.16 to 31.6 nM and 3.16 to 31.6 nM.
In the same order, the values of `O=S(=O)(Nc1nc(F)c(OCCF)cc1F)c1c[nH]c2cc(Cl)ccc12` [Compound I-364, 6-chloro-N-[3,6-difluoro-5-(2-fluoroethoxy)pyridin-2-yl]-1H-indole-3-sulfonamide] are < 3.16 nM and < 3.16 nM.
In the same order, the values of `COCCOc1cc(F)c(NS(=O)(=O)c2c[nH]c3cc(Cl)ccc23)nc1F` [Compound I-365, 6-chloro-N-[3,6-difluoro-5-(2-methoxyethoxy)pyridin-2-yl]-1H-indole-3-sulfonamide] are 3.16 to 31.6 nM and 3.16 to 31.6 nM.
On to `COc1nc(NS(=O)(=O)c2c[nH]c3c(OC(F)F)c(Cl)ccc23)c(F)cc1F` [Compound I-366, 6-chloro-7-(difluoromethoxy)-N-(3,5-difluoro-6-methoxypyridin-2-yl)-1H-indole-3-sulfonamide], for which the IC50 in [3] is 3.16 to 31.6 nM. Moreover, the Kb in data set [4] was 3.16 to 31.6 nM.
For the compound `NCc1[nH]cc(CCC(=O)O)c1CC(=O)O` [PBG, porphobilinogen], the “amounts needed in the GPR17 assays (reported affinity quite low)” value in [1] is “mM range”. The chemical stability result in data set [7] is “rapidly decomposes after exposure to air and light”.
With `CC(C)(O)c1ccccc1CC[C@@H](SCC1(CC(=O)O)CC1)c1cccc(/C=C/c2ccc3ccc(Cl)cc3n2)c1` [montekulast, Montelukast], in data set [8], the protein binding entry is recorded as “high protein binding”. The brain penetration result in [9] is “poor brain penetration”.
As to `O=C(Nc1cccc2c(=O)cc(-c3nnn[nH]3)oc12)c1ccc(OCCCCc2ccccc2)cc1` [pranlukast], the protein binding result in data set [8] is reported as “high protein binding”. For the same compound, in data set [9], the brain penetration result is given as “poor brain penetration”.
